Measured values published in article PMC11198769, “Enhancement of transcription efficiency by TAR-Tat system increases the functional expression of human olfactory receptors” (PLOS ONE, 2024).
pEC50: −log10 of the molar value. Read-outs that look alike come from different tables or passages of the source.

Columns and labels:
[1] = molecular target: T1, OR2M3 (Homo sapiens, UniProt Q8NG83); assay: hOR assay (GloSensor cAMP luciferase), dose-response; type: cell-based; settings: OR2M3/pHEK plasmid
T1 construct: Lucy tag (N); expressed in transfected cells; host or cells: Flp-In T-REx-293 cells stably expressing RTP1S, Gαolf and Ric8-b
T1 sequence (Q8NG83 1-312): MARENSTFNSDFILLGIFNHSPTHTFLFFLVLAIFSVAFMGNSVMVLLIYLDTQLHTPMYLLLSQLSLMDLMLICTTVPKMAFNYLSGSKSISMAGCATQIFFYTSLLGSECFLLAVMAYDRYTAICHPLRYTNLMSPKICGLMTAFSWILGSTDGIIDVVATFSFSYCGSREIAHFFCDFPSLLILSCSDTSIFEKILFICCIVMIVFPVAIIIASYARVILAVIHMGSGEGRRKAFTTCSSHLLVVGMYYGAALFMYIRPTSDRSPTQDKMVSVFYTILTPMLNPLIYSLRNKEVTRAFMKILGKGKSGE
Procedure: (§1) Flp-In T-REx-293 cells stably expressing accessory proteins (RTP1S, Gαolf, and Ric8-b) were established using the Flp-In T-REx system. Accessory proteins-expressing cells were maintained in high-glucose Dulbecco’s modified Eagle medium (Sigma-Aldrich) containing 10% fetal bovine serum (Biowest) and 1% antibiotic–antimycotic (Nacalai tesque) at 37°C with 5% CO2.
(§2) The GloSensor™ Technology (Promega) was used for the luciferase assay of the hOR response. As the negative control, cells that were transfected by the pBApo-CMV neo vector and pHEK293 Ultra Expression Vector I were used as mock cells. hOR/pHEK and hOR/pBApo (50 ng/well) were transfected into the accessory proteins-expressing cell line (40000 cells/well) using Lipofectamine 2000 (Thermo Fisher Scientific) (400 nL/well) along with pGlosensor™-22F cAMP biosensor plasmid (Promega) (50 ng/well) in a 96-well plate. At 28 h posttransfection, the cells were washed with an assay buffer (140 mM NaCl, 10 mM HEPES, 5 mM KCl, 1 mM CaCl2・2H2O, 10 mM D-glucose, pH 7.5) and replaced with the assay buffer (50 μL/well) containing 2% GloSensor cAMP substrate and preincubated for 1 h at 25°C. Then, the assay buffer was added (130 μL/well). After 10 min of equilibration, the luminescence was measured (L0). Odorants diluted in 10% DMSO/assay buffer were treated (20 μL/well). After 9 min, the luminescence was measured (L9min). First, all the L9min values were subtracted by the L0 value (ΔL) and divided by the L0 value (ΔL/L0). The concentration range of the odorants was different for each odorant, but the minimum was 0.01 μM and the maximum was 3 mM. For all hORs, luciferase assays with hOR/pBApo and hOR/pHEK were conducted in the same 96-well plate each time, and luminescence was normalized to a maximum value of 100. Dose–response curve images were graphed using the Graph Pad Prism 9 software (Graph Pad Software).

[2] = molecular target: T2, OR1A1 (Homo sapiens, UniProt Q9P1Q5); assay: as above; type: cell-based; settings: for pEC50: read-out: EC50 value; for top value of OR1A1 dose-response curve: luminescence normalized to a maximum value of 100
T2 construct: Lucy tag (N); FLAG (N); Rho tag (N); expressed in transfected cells; host or cells: Flp-In T-REx-293 cells stably expressing RTP1S, Gαolf and Ric8-b
T2 sequence (Q9P1Q5 1-309): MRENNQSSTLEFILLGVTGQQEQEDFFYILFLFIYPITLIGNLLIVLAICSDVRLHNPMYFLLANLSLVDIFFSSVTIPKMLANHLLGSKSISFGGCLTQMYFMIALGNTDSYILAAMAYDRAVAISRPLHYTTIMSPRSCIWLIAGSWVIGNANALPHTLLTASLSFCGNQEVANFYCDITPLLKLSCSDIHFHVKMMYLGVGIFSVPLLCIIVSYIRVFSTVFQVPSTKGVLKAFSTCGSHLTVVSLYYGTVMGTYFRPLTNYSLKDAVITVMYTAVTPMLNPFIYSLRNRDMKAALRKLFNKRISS
Procedure: as §1, §2

Compound | pEC50 [1] | response of HiBiT-tagged OR1A1 ([2]; OR1A1 with the HiBiT tag (S1 Fig)) | pEC50 ([2]; OR1A1 with the TAR-Tat system (OR1A1/pHEK)) | pEC50 ([2]; OR1A1 without the TAR-Tat system (OR1A1/pBApo)) | top value of OR1A1 dose-response curve ([2]; with the TAR-Tat system (OR1A1/pHEK)) | top value of OR1A1 dose-response curve ([2]; without the TAR-Tat system (OR1A1/pBApo))
CCC(S)C(C)CO (stereo not drawn) [3-mercapto-2-methyl-1-pentanol] | 6.80 | – | – | – | – | –
C=C(C)[C@H]1CC=C(C)C(=O)C1 [(+)-carvone] | – | a dose-dependent response was detected | 6.04 | 5.36 | 90.4 | 53.9
